Measurements reported in ChEMBL document CHEMBL1130360, “3-[(3-Hydroxymethyl)-4-hydroxybutyl]imidazo[4,5-b]pyridinesnovel antiviral agents” (Bioorg Med Chem Lett, 1997).
Values after ≈ are worked out from the molar mass of the structure shown.

Legend:
HEL [1] = assay: Cytotoxicity of compound against varicella zoster virus infected human embryonic lung cells; type: functional
Human alphaherpesvirus 3 [2] = assay: The compound was tested for the viral plaque reduction against VZV virus; Effective concentration required to inhibit 50% virus proliferation; type: functional, organism-based
Human alphaherpesvirus 1 [3] = assay: The compound was tested for the cytopathic effect inhibition against herpes simplex virus 1; Effective concentration required to inhibit 50% virus proliferation; type: functional, organism-based
Human betaherpesvirus 5 = assay: The compound was tested for the cytomegalovirus; Effective concentration required to inhibit 50% virus proliferation; type: functional, organism-based
Human alphaherpesvirus 2 [4] = assay: (§1) The compound was tested for the cytopathic effect inhibition against herpes simplex virus 2; Effective concentration required to inhibit 50% virus proliferation; type: functional, organism-based
[5] = Selectivity is determined by CC50/EC50 of VZV virus; type: functional
HEL [6] = assay: Cytotoxicity of compound against human cytomegalo virus infected human embryonic lung cells; type: functional
[7] = Selectivity is determined by CC50/EC50 of cytopathic effect inhibition against herpes simplex virus 1; type: functional
HEL [8] = assay: Cytotoxicity of compound against herpes simplex virus-2 infected human embryonic lung cells; type: functional
[9] = Selectivity is determined by CC50/EC50 of cytopathic effect inhibition against herpes simplex virus 2; type: functional
HEL [10] = assay: Cytotoxicity of compound against herpes simplex virus 1 infected human embryonic lung cells; type: functional
[11] = Selectivity is determined by CC50/EC50 of cytomegalovirus; type: functional
[12] = Selectivity is determined by CC50/EC50 of viral plaque reduction against herpes simplex virus 2; type: functional
HEL [13] = assay: The compound was tested for the viral plaque reduction against herpes simplex virus 2; Cytotoxicity concentration required to reduce 50% human embryonic lung cells; type: functional
Human alphaherpesvirus 2 [14] = assay: The compound was tested for the viral plaque reduction against herpes simplex virus 2; Effective concentration required to inhibit 50% virus proliferation; type: functional, organism-based
Human alphaherpesvirus 1 [15] = assay: The compound was tested for the viral plaque reduction against herpes simplex virus 1; Effective concentration required to inhibit 50% virus proliferation; type: functional, organism-based
[16] = Selectivity is determined by CC50/EC50 of viral plaque reduction against herpes simplex virus 1; type: functional
Human alphaherpesvirus 3 [17] = assay: as §1

SMILES | CC50 (HEL [1]) | EC50 (Human alphaherpesvirus 3 [2]) | EC50 (Human alphaherpesvirus 1 [3]) | EC50 (Human betaherpesvirus 5) | EC50 (Human alphaherpesvirus 2 [4]) | SI [5] | CC50 (HEL [6]) | SI [7] | CC50 (HEL [8]) | SI [9] | CC50 (HEL [10]) | SI [11] | SI [12] | CC50 (HEL [13]) | EC50 (Human alphaherpesvirus 2 [14]) | EC50 (Human alphaherpesvirus 1 [15]) | SI [16] | EC50 (Human alphaherpesvirus 3 [17])
OCC(CO)CCn1cnc2cc(Cl)c(Cl)nc21 | > 100 µg/mL | 11.7 µg/mL (≈ 40.3 µM) | > 100 µg/mL | > 100 µg/mL | > 100 µg/mL | >8.5 | > 100 µg/mL | 0 | > 100 µg/mL | 0 | > 100 µg/mL | 0 | – | – | – | – | – | –
Nc1nc2c(cc1Cl)nc(C(F)(F)F)n2CCC(CO)CO | > 100 µg/mL | – | 1.2 µg/mL (≈ 3.54 µM) | > 100 µg/mL | > 100 µg/mL | – | > 100 µg/mL | >83 | > 100 µg/mL | 0 | – | 0 | 0 | > 100 µg/mL | > 100 µg/mL | > 100 µg/mL | 0 | –
CC(=O)OCC(CCn1cnc2cc(Cl)c(Cl)nc21)COC(C)=O | – | – | – | 132 µg/mL (≈ 353 µM) | – | – | – | – | – | – | – | – | – | – | – | – | – | –
OCC(CO)CCn1cnc2nc(Cl)c(Cl)cc21 | > 100 µg/mL | 49.8 µg/mL (≈ 172 µM) | > 100 µg/mL | > 100 µg/mL | > 100 µg/mL | >2 | > 100 µg/mL | 0 | > 100 µg/mL | 0 | – | 0 | – | – | – | – | – | –
Nc1nc2c(ncn2COCCO)c(=O)[nH]1 [ACYCLOVIR] | – | – | – | – | 0.2 µg/mL (≈ 0.888 µM) | – | – | – | – | – | – | – | – | – | 1.1 µg/mL (≈ 4.88 µM) | – | – | 0.6 µg/mL (≈ 2.66 µM)
Nc1nc2c(ncn2COC(CO)CO)c(=O)[nH]1 [GANCICLOVIR] | – | – | – | 0.1 µg/mL (≈ 0.392 µM) | – | – | – | – | – | – | – | – | – | – | – | – | – | –
